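1) Cells in 96-well plates. 2) Compound, 48 h, 5 concentrations. 3) Linear interpolation between surrounding doses. 4) Unreached endpoint = highest concentration. GI50 marks 50% less growth. TGI marks complete inhibition of growth.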
Columns and labels:
Assay in all cases: NCI tumour cell line growth inhibition, 48 h
[1] = tested on: 786-0 renal
[2] = tested on: A498 renal
[3] = tested on: A549 NSCLC
[4] = tested on: ACHN renal
[5] = tested on: BT-549 breast
[6] = tested on: CAKI-1 renal
[7] = tested on: CCRF-CEM leukemia
[8] = tested on: COLO 205 colon
[9] = tested on: DU-145 prostate
[10] = tested on: EKVX NSCLC
[11] = tested on: HCT-116 colon
[12] = tested on: HCT-15 colon
[13] = tested on: HOP-62 NSCLC
[14] = tested on: HOP-92 NSCLC
[15] = tested on: HS 578T breast
[16] = tested on: HT29 colon
[17] = tested on: IGROV1 ovarian
[18] = tested on: K-562 leukemia
[19] = tested on: KM12 colon
[20] = tested on: LOX IMVI melanoma
[21] = tested on: M14 melanoma
[22] = tested on: MALME-3M melanoma
[23] = tested on: MCF7 breast
[24] = tested on: MDA-MB-231 breast
[25] = tested on: MDA-MB-435
[26] = tested on: MOLT-4 leukemia
[27] = tested on: NCI-H226 lung
[28] = tested on: NCI-H23 lung
[29] = tested on: NCI-H460 lung
[30] = tested on: NCI-H522 lung
[31] = tested on: NCI/ADR-RES ovarian
[32] = tested on: OVCAR-3 ovarian
[33] = tested on: OVCAR-4 ovarian
[34] = tested on: OVCAR-5 ovarian
[35] = tested on: OVCAR-8 ovarian
[36] = tested on: PC-3 prostate
[37] = tested on: RPMI-8226 leukemia
[38] = tested on: RXF 393 renal
[39] = tested on: SF-268 CNS
[40] = tested on: SF-295 CNS
[41] = tested on: SF-539 CNS
[42] = tested on: SK-MEL-2 melanoma
[43] = tested on: SK-MEL-28 melanoma
[44] = tested on: SK-MEL-5 melanoma
[45] = tested on: SK-OV-3 ovarian
[46] = tested on: SN12C renal
[47] = tested on: SNB-19 CNS
[48] = tested on: SNB-75 CNS
[49] = tested on: SW-620 colon
[50] = tested on: T-47D breast
[51] = tested on: TK-10 renal
[52] = tested on: U251 CNS
[53] = tested on: UACC-257 melanoma
[54] = tested on: UACC-62 melanoma
[55] = tested on: UO-31 renal
[56] = tested on: HCC-2998 colon

Q: For `CCOc1c(OC)cc(C2c3cc4c(c(OCC)c3CC3COC(=O)C32)OCO4)cc1OC` (stereo not drawn), which TGI [1] is on record?
A: 22.2 µM

Q: And the TGI [2]?
A: 67.4 µM

Q: And the TGI [3]?
A: 14.2 µM

Q: And the TGI [4]?
A: 20.9 µM

Q: And the TGI [5]?
A: 64 µM

Q: And the TGI [6]?
A: 55.7 µM

Q: What about the TGI [7] of the same molecule?
A: 30.1 µM

Q: And the TGI [8]?
A: 6.98 µM

Q: And the TGI [9]?
A: 12.1 µM

Q: And the TGI [10]?
A: > 100 µM

Q: What about the TGI [11] of the same molecule?
A: 11.5 µM

Q: And the TGI [12]?
A: 2.68 µM

Q: And the TGI [13]?
A: 17.8 µM

Q: What about the TGI [14] of the same molecule?
A: > 100 µM

Q: What about the TGI [15] of the same molecule?
A: 21.9 µM

Q: What about the TGI [16] of the same molecule?
A: 10.4 µM

Q: What about the TGI [17] of the same molecule?
A: 80.5 µM

Q: What about the TGI [18] of the same molecule?
A: 19.4 µM

Q: And the TGI [19]?
A: 11.3 µM

Q: What about the TGI [20] of the same molecule?
A: 14 µM

Q: What about the TGI [21] of the same molecule?
A: 43.3 µM

Q: And the TGI [22]?
A: 79.8 µM

Q: And the TGI [23]?
A: > 100 µM

Q: What about the TGI [24] of the same molecule?
A: 6.47 µM

Q: What about the TGI [25] of the same molecule?
A: 0.898 µM

Q: What about the TGI [26] of the same molecule?
A: 7.69 µM

Q: What about the TGI [27] of the same molecule?
A: 46.9 µM

Q: What about the TGI [28] of the same molecule?
A: 5.9 µM

Q: What about the TGI [29] of the same molecule?
A: > 100 µM

Q: What about the TGI [30] of the same molecule?
A: 16.8 µM

Q: What about the TGI [31] of the same molecule?
A: 7.17 µM

Q: And the TGI [32]?
A: 5.14 µM

Q: What about the TGI [33] of the same molecule?
A: > 100 µM

Q: What about the TGI [34] of the same molecule?
A: 15.9 µM

Q: And the TGI [35]?
A: 6.38 µM

Q: What about the TGI [36] of the same molecule?
A: > 100 µM

Q: And the TGI [37]?
A: 59.3 µM

Q: What about the TGI [38] of the same molecule?
A: > 100 µM

Q: What about the TGI [39] of the same molecule?
A: 92.6 µM

Q: What about the TGI [40] of the same molecule?
A: 3.97 µM

Q: What about the TGI [41] of the same molecule?
A: 4.91 µM

Q: And the TGI [42]?
A: > 100 µM

Q: And the TGI [43]?
A: > 100 µM

Q: What about the TGI [44] of the same molecule?
A: 14.5 µM

Q: And the TGI [45]?
A: > 100 µM

Q: What about the TGI [46] of the same molecule?
A: 6.9 µM

Q: What about the TGI [47] of the same molecule?
A: > 100 µM

Q: What about the TGI [48] of the same molecule?
A: > 100 µM

Q: What about the TGI [49] of the same molecule?
A: > 100 µM

Q: What about the TGI [50] of the same molecule?
A: > 100 µM

Q: And the TGI [51]?
A: 69.6 µM

Q: What about the TGI [52] of the same molecule?
A: 11.6 µM

Q: What about the TGI [53] of the same molecule?
A: 49.1 µM

Q: And the TGI [54]?
A: 2.27 µM

Q: What about the TGI [55] of the same molecule?
A: 27.3 µM

Q: How did the GI50 [1] turn out when `Cc1ccc(Cl)cc1Nc1nc(C(F)(F)F)ccc1C(N)=O` was run?
A: 3.28 µM

Q: What about the TGI [1] of the same molecule?
A: 13.6 µM

Q: And the GI50 [3]?
A: 12.8 µM

Q: And the TGI [3]?
A: > 100 µM

Q: What about the GI50 [4] of the same molecule?
A: 3.67 µM

Q: And the TGI [4]?
A: 15.3 µM

Q: And the GI50 [5]?
A: 4.53 µM

Q: And the TGI [5]?
A: 28.6 µM

Q: What about the GI50 [6] of the same molecule?
A: 3.5 µM

Q: And the TGI [6]?
A: 23.9 µM

Q: And the GI50 [7]?
A: 15.1 µM

Q: What about the TGI [7] of the same molecule?
A: 36.2 µM

Q: What about the GI50 [8] of the same molecule?
A: 5.48 µM

Q: What about the TGI [8] of the same molecule?
A: 71.2 µM

Q: What about the GI50 [9] of the same molecule?
A: 9.77 µM

Q: What about the TGI [9] of the same molecule?
A: > 100 µM

Q: What about the GI50 [10] of the same molecule?
A: 4.16 µM

Q: What about the TGI [10] of the same molecule?
A: 46.8 µM

Q: And the GI50 [56]?
A: 6.1 µM

Q: What about the TGI [56] of the same molecule?
A: 20.3 µM

Q: What about the GI50 [11] of the same molecule?
A: 5.91 µM

Q: What about the TGI [11] of the same molecule?
A: 22.8 µM

Q: And the GI50 [12]?
A: 5.73 µM

Q: And the TGI [12]?
A: > 100 µM

Q: What about the GI50 [13] of the same molecule?
A: 3.5 µM

Q: And the TGI [13]?
A: 17.4 µM

Q: And the GI50 [14]?
A: 15.1 µM

Q: What about the TGI [14] of the same molecule?
A: 40.7 µM

Q: And the GI50 [15]?
A: 0.809 µM

Q: And the TGI [15]?
A: 3.94 µM

Q: And the GI50 [16]?
A: 4.02 µM

Q: And the TGI [16]?
A: > 100 µM

Q: And the GI50 [17]?
A: 5.19 µM

Q: What about the TGI [17] of the same molecule?
A: 59.2 µM

Q: What about the GI50 [18] of the same molecule?
A: 21.3 µM

Q: And the TGI [18]?
A: 46.1 µM

Q: What about the GI50 [19] of the same molecule?
A: 5.09 µM

Q: What about the TGI [19] of the same molecule?
A: 47.8 µM

Q: And the GI50 [20]?
A: 2.23 µM

Q: And the TGI [20]?
A: 11.4 µM

Q: What about the GI50 [21] of the same molecule?
A: 10.7 µM

Q: What about the TGI [21] of the same molecule?
A: 35.7 µM

Q: What about the GI50 [23] of the same molecule?
A: 3.92 µM

Q: What about the TGI [23] of the same molecule?
A: > 100 µM

Q: And the GI50 [24]?
A: 2.47 µM

Q: And the TGI [24]?
A: 11.8 µM

Q: What about the GI50 [25] of the same molecule?
A: 12 µM

Q: What about the TGI [25] of the same molecule?
A: 60.4 µM

Q: What about the GI50 [26] of the same molecule?
A: 7.54 µM

Q: What about the TGI [26] of the same molecule?
A: 48.4 µM

Q: What about the GI50 [27] of the same molecule?
A: 1.45 µM

Q: And the TGI [27]?
A: 9.81 µM

Q: And the GI50 [28]?
A: 2.76 µM

Q: What about the TGI [28] of the same molecule?
A: 15.9 µM

Q: What about the GI50 [29] of the same molecule?
A: 3.28 µM

Q: What about the TGI [29] of the same molecule?
A: > 100 µM

Q: And the GI50 [30]?
A: 4.63 µM

Q: And the TGI [30]?
A: 60.7 µM

Q: What about the GI50 [31] of the same molecule?
A: 5.7 µM

Q: And the TGI [31]?
A: 31.2 µM

Q: And the GI50 [32]?
A: 13.2 µM

Q: And the TGI [32]?
A: 55.7 µM

Q: And the GI50 [33]?
A: 22.3 µM

Q: What about the TGI [33] of the same molecule?
A: > 100 µM

Q: What about the GI50 [34] of the same molecule?
A: 8.48 µM

Q: And the TGI [34]?
A: 49.4 µM

Q: And the GI50 [35]?
A: 29.4 µM

Q: What about the TGI [35] of the same molecule?
A: > 100 µM

Q: What about the GI50 [36] of the same molecule?
A: 14 µM

Q: And the TGI [36]?
A: 71.1 µM

Q: And the GI50 [37]?
A: 18.6 µM

Q: And the TGI [37]?
A: 46.8 µM

Q: What about the GI50 [38] of the same molecule?
A: 10.5 µM

Q: What about the TGI [38] of the same molecule?
A: 34 µM

Q: And the GI50 [39]?
A: 6.46 µM

Q: What about the TGI [39] of the same molecule?
A: > 100 µM

Q: What about the GI50 [40] of the same molecule?
A: 11.9 µM

Q: What about the TGI [40] of the same molecule?
A: 41.2 µM

Q: What about the GI50 [41] of the same molecule?
A: 4.46 µM

Q: And the TGI [41]?
A: 28 µM

Q: And the GI50 [42]?
A: 20.4 µM

Q: What about the TGI [42] of the same molecule?
A: > 100 µM

Q: And the GI50 [43]?
A: 43.8 µM

Q: What about the TGI [43] of the same molecule?
A: > 100 µM

Q: And the GI50 [44]?
A: 1.92 µM

Q: And the TGI [44]?
A: 6.6 µM

Q: What about the GI50 [45] of the same molecule?
A: 16.9 µM

Q: And the TGI [45]?
A: > 100 µM

Q: And the GI50 [46]?
A: 5.5 µM

Q: What about the TGI [46] of the same molecule?
A: 91.8 µM

Q: What about the GI50 [47] of the same molecule?
A: 11.3 µM

Q: And the TGI [47]?
A: > 100 µM

Q: What about the GI50 [48] of the same molecule?
A: 8.65 µM

Q: What about the TGI [48] of the same molecule?
A: > 100 µM

Q: And the GI50 [49]?
A: 6.98 µM

Q: And the TGI [49]?
A: > 100 µM

Q: What about the GI50 [50] of the same molecule?
A: 3.54 µM

Q: What about the TGI [50] of the same molecule?
A: > 100 µM

Q: What about the GI50 [51] of the same molecule?
A: 4.31 µM

Q: And the TGI [51]?
A: 18.5 µM

Q: What about the GI50 [52] of the same molecule?
A: 4.09 µM

Q: And the TGI [52]?
A: 26.1 µM

Q: What about the GI50 [53] of the same molecule?
A: 24.8 µM

Q: What about the TGI [53] of the same molecule?
A: 83.5 µM

Q: And the GI50 [54]?
A: 6.56 µM

Q: What about the TGI [54] of the same molecule?
A: 26.6 µM

Q: And the GI50 [55]?
A: 5.37 µM

Q: And the TGI [55]?
A: > 100 µM
